# Measured values taken from ChEMBL document CHEMBL1909602, “Design and synthesis of novel triazole antifungal derivatives by structure-based bioisosterism” (Eur J Med Chem, 2011).
# Tests used:
# Candida albicans = experiment: Antifungal activity against Candida albicans Y0109 after 24 hrs by serial dilution method; format: functional; settings: Y0109, 24 h
# Candida tropicalis = experiment: Antifungal activity against Candida tropicalis 087 after 24 hrs by serial dilution method; format: functional; settings: Candida tropicalis, 087, 24 h
# Candida parapsilosis = experiment: Antifungal activity against Candida parapsilosis ATCC 22019 after 24 hrs by serial dilution method; format: functional; settings: Lodderomyces parapsilosis, ATCC 22019, 24 h
# Pichia kudriavzevii = experiment: Antifungal activity against Candida krusei ATCC 6258 after 24 hrs by serial dilution method; format: functional; settings: ATCC 6258, 24 h
# Cryptococcus neoformans = experiment: Antifungal activity against Cryptococcus neoformans 32609 after 72 hrs by serial dilution method; format: functional; settings: Cryptococcus neoformans, 32609, 72 h
# Aspergillus fumigatus = experiment: Antifungal activity against Aspergillus fumigatus 7544 after 7 days by serial dilution method; format: functional; settings: Aspergillus fumigatus, 7544, 168 h
# [1] = Hydrophobicity, Log P of the compound; format: physicochemical; settings: octanol/water
SMILES,MIC80 (Candida albicans) [µg/mL],MIC80 (Candida tropicalis) [µg/mL],MIC80 (Candida parapsilosis) [µg/mL],MIC80 (Pichia kudriavzevii) [µg/mL],MIC80 (Cryptococcus neoformans) [µg/mL],MIC80 (Aspergillus fumigatus) [µg/mL],logP [1]
OC(Cn1cncn1)(Cn1cncn1)c1ccc(F)cc1F [FLUCONAZOLE],0.25,0.0625,1,0.25,16,> 64,
O=c1n(-c2ccc(Cl)c(Cl)c2)cnn1CCCN1CCN(CC(O)(Cn2cncn2)c2ccc(F)cc2F)CC1 (racemic),0.0625,0.0625,0.25,0.25,1,4,3.17
O=c1n(-c2ccccc2)cnn1CCCN1CCN(CC(O)(Cn2cncn2)c2ccc(F)cc2F)CC1 (racemic),0.25,1,1,1,8,> 64,1.92
Cc1ccc(C)c(-n2cnn(CCCN3CCN(CC(O)(Cn4cncn4)c4ccc(F)cc4F)CC3)c2=O)c1 (racemic),0.25,0.25,1,1,8,> 64,2.65
Cc1cccc(-n2cnn(CCCN3CCN(CC(O)(Cn4cncn4)c4ccc(F)cc4F)CC3)c2=O)c1 (racemic),0.25,0.25,1,1,8,8,2.28
O=c1n(-c2ccc(Cl)cc2)cnn1CCCN1CCN(CC(O)(Cn2cncn2)c2ccc(F)cc2F)CC1 (racemic),0.0625,0.25,0.25,0.25,4,8,2.54
O=c1n(-c2ccccc2F)cnn1CCCN1CCN(CC(O)(Cn2cncn2)c2ccc(F)cc2F)CC1 (racemic),0.25,1,1,> 64,> 64,> 64,2.02
Cc1cc(C)cc(-n2cnn(CCCN3CCN(CC(O)(Cn4cncn4)c4ccc(F)cc4F)CC3)c2=O)c1 (racemic),0.25,0.25,1,1,4,8,2.65
Cc1ccc(-n2cnn(CCCN3CCN(CC(O)(Cn4cncn4)c4ccc(F)cc4F)CC3)c2=O)cc1Cl (racemic),0.0625,0.25,0.25,0.25,1,4,2.91
Cc1ccc(-n2cnn(CCCN3CCN(CC(O)(Cn4cncn4)c4ccc(F)cc4F)CC3)c2=O)cc1 (racemic),0.25,0.25,1,1,8,> 64,2.28
Cc1ccc(-n2cnn(CCCN3CCN(CC(O)(Cn4cncn4)c4ccc(F)cc4F)CC3)c2=O)cc1[N+](=O)[O-] (racemic),0.25,0.25,1,> 64,16,> 64,2.11
O=c1n(-c2cccc(Cl)c2)cnn1CCCN1CCN(CC(O)(Cn2cncn2)c2ccc(F)cc2F)CC1 (racemic),0.0625,0.0625,0.25,> 64,4,16,2.54
Cc1ccc(-n2cnn(CCCN3CCN(CC(O)(Cn4cncn4)c4ccc(F)cc4F)CC3)c2=O)cc1C (racemic),0.25,0.25,0.25,1,4,8,2.65
Cc1ccc(-n2cnn(CCCN3CCN(CC(O)(Cn4cncn4)c4ccc(F)cc4F)CC3)c2=O)c(C)c1 (racemic),1,1,1,1,8,> 64,2.65
O=c1n(-c2ccc(F)cc2)cnn1CCCN1CCN(CC(O)(Cn2cncn2)c2ccc(F)cc2F)CC1 (racemic),0.25,0.25,1,> 64,> 64,> 64,2.02
Cc1cccc(C)c1-n1cnn(CCCN2CCN(CC(O)(Cn3cncn3)c3ccc(F)cc3F)CC2)c1=O (racemic),1,0.25,4,1,> 64,> 64,2.65
CC(C)(C)c1ccc(-n2cnn(CCCN3CCN(CC(O)(Cn4cncn4)c4ccc(F)cc4F)CC3)c2=O)cc1 (racemic),0.25,0.25,0.25,0.25,1,1,3.59
O=c1n(-c2ccc(Br)cc2)cnn1CCCN1CCN(CC(O)(Cn2cncn2)c2ccc(F)cc2F)CC1 (racemic),0.25,0.25,0.25,1,4,8,2.61
O=c1n(-c2ccc(I)cc2)cnn1CCCN1CCN(CC(O)(Cn2cncn2)c2ccc(F)cc2F)CC1 (racemic),0.25,0.25,0.25,0.25,4,8,2.57
CCOc1ccc(-n2cnn(CCCN3CCN(CC(O)(Cn4cncn4)c4ccc(F)cc4F)CC3)c2=O)cc1 (racemic),0.25,1,1,1,8,> 64,2.25
O=c1n(-c2ccc(F)c(Cl)c2)cnn1CCCN1CCN(CC(O)(Cn2cncn2)c2ccc(F)cc2F)CC1 (racemic),0.0625,0.0625,0.25,0.25,1,4,2.65
